Source: ChEMBL document CHEMBL4373715, “Discovery and Biological Evaluations of Halogenated 2,4-Diphenyl Indeno[1,2-b]pyridinol Derivatives as Potent Topoisomerase IIα-Targeted Chemotherapeutic Agents for Breast Cancer” (J Med Chem, 2019)
Calls of active or inactive are those of the source. No cut-off for these calls is given here.

What was measured:
[1] = Stability in mouse plasma assessed as parent compound remaining at 1 mM measured immediately by LC-MS/MS analysis; assay type: ADME, cell-free; conditions: read-out: Stability
[2] = molecular target: DNA topoisomerase 2-alpha (Homo sapiens) (UniProt P11388); test: Inhibition of recombinant human topoisomerase 2alpha-mediated relaxation of supercoiled pBR322 DNA at 20 uM measured after 30 mins by ethidium bromide staining based agarose gel electrophoresis relative to control
[3] = Toxicity in male ICR mouse assessed as change in body weight at 50 to 100 mg/kg, iv administered as single dose measured daily for 7 days; assay type: organism-based; conditions: in vivo, 168 h
[4] = Stability in mouse plasma assessed as parent compound remaining at 1 mM measured after 0.5 hrs by LC-MS/MS analysis; assay type: ADME, cell-free; conditions: 1000 µM
[5] = Toxicity in female ICR mouse assessed as mortality at 50 mg/kg, iv administered as single dose measured daily for 7 days (reference value: 0%); assay type: organism-based; conditions: in vivo
[6] = Half life in Sprague-Dawley rat liver microsomes at 1 mM in presence of NADPH by LC-MS/MS analysis; assay type: ADME, Microsome
T47D [7] = test: Induction of DNA damage in human T47D cells at 5 to 10 uM measured after 24 hrs by comet assay; assay type: functional, cell-based
[8] = Protein binding in rat plasma assessed as unbound fraction at 1 mM measured after 1 hr by LC-MS/MS analysis; assay type: ADME, cell-free
[9] = Stability in rat plasma assessed as parent compound remaining at 1 mM measured after 4 hrs by LC-MS/MS analysis; assay type: ADME, cell-free; conditions: 1000 µM
[10] = Toxicity in male ICR mouse assessed as physical abnormalities at 50 to 100 mg/kg, iv administered as single dose measured up to 7 days; assay type: organism-based; conditions: in vivo, 168 h
MDA-MB-231 = test: Antitumor activity against human MDA-MB-231 cells expressing luciferase xenografted in mouse assessed as tumor growth inhibition at 12 mg/kg, iv administered once daily for 10 days measured on day 4 and 11 by bioluminescent imaging analysis; assay type: functional, organism-based
[11] = Stability in human plasma assessed as parent compound remaining at 1 mM measured after 0.5 hrs by LC-MS/MS analysis; assay type: ADME, cell-free; conditions: read-out: Stability
[12] = Stability in human plasma assessed as parent compound remaining at 1 mM measured after 0.25 hrs by LC-MS/MS analysis; assay type: ADME, cell-free; conditions: read-out: Stability
MDA-MB-436 = test: Antiproliferative activity against human MDA-MB-436 cells measured after 72 hrs by Ez-cytox assay; assay type: functional, cell-based; conditions: MDA-MB-436, 72 h
[13] = molecular target: T1, DNA topoisomerase 1 (Homo sapiens) (UniProt P11387); test: Inhibition of recombinant human topoisomerase 1-mediated relaxation of supercoiled pBR322 DNA at 100 uM measured after 30 mins by ethidium bromide staining based agarose gel electrophoresis relative to control
T1 sequence (whole entry): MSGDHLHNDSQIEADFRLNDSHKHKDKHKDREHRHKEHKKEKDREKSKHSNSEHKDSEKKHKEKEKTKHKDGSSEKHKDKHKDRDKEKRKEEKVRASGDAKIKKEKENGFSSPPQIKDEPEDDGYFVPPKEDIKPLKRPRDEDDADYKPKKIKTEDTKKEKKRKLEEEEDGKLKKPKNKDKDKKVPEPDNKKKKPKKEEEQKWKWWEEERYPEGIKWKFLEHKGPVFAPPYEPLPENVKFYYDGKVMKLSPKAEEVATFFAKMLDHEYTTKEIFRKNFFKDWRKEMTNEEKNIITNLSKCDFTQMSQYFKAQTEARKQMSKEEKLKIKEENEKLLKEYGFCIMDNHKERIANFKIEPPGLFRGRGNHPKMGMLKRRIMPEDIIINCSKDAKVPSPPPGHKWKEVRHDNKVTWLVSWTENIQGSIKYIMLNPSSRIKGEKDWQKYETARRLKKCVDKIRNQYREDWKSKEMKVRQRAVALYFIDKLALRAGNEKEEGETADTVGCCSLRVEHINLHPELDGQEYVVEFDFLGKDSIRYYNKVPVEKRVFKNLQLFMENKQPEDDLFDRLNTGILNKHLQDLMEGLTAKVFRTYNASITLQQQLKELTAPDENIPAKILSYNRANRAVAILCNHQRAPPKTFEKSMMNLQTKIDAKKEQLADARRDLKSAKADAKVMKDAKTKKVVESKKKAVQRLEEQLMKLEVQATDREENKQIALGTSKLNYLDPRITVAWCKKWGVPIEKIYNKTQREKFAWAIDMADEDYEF

[14] = Protein binding in human plasma assessed as unbound fraction at 1 mM measured after 1 hr by LC-MS/MS analysis; assay type: ADME, cell-free
T47D [15] = test: Induction of apoptosis in human T47D cells assessed as decrease in bcl-2 expression at 10 to 30 uM measured after 24 hrs by Western blot analysis; assay type: functional, cell-based
[16] = Stability in rat plasma assessed as parent compound remaining at 1 mM measured after 0.5 hrs by LC-MS/MS analysis; assay type: ADME, cell-free; conditions: read-out: Stability
[17] = Half life in ICR mouse liver microsomes at 1 mM in presence of NADPH by LC-MS/MS analysis; assay type: ADME, Microsome
[18] = Stability in human plasma assessed as parent compound remaining at 1 mM measured immediately by LC-MS/MS analysis; assay type: ADME, cell-free; conditions: read-out: Stability
T47D [19] = test: Antiproliferative activity against human T47D cells measured after 72 hrs by EZ-Cytox assay; assay type: functional, cell-based
[20] = Protein binding in mouse plasma assessed as unbound fraction at 1 mM measured after 1 hr by LC-MS/MS analysis; assay type: ADME, cell-free
[21] = Stability in rat plasma assessed as parent compound remaining at 1 mM measured immediately by LC-MS/MS analysis; assay type: ADME, cell-free; conditions: read-out: Stability
[22] = Half life in human liver microsomes at 1 mM in presence of NADPH by LC-MS/MS analysis; assay type: ADME, Microsome
HCC70 = test: Antiproliferative activity against human HCC70 cells measured after 72 hrs by Ez-cytox assay; assay type: functional, cell-based; conditions: HCC70, 72 h, read-out: IC50
[23] = Stability in mouse plasma assessed as parent compound remaining at 1 mM measured after 2 hrs by LC-MS/MS analysis; assay type: ADME, cell-free; conditions: 1000 µM
[24] = Toxicity in female ICR mouse assessed as change in body weight at 50 to 100 mg/kg, iv administered as single dose measured daily for 7 days; assay type: organism-based; conditions: in vivo, 168 h
T47D [25] = test: Induction of apoptosis in human T47D cells assessed as increase in cleaved PARP expression at 10 to 30 uM measured after 24 hrs by Western blot analysis; assay type: functional, cell-based
T47D [26] = test: Induction of apoptosis in human T47D cells assessed as increase in Bax expression at 10 to 30 uM measured after 24 hrs by Western blot analysis; assay type: functional, cell-based
[27] = Stability in human plasma assessed as parent compound remaining at 1 mM measured after 1 hr by LC-MS/MS analysis; assay type: ADME, cell-free; conditions: read-out: Stability
[28] = Protein binding in mouse plasma assessed as unbound fraction at 1 mM measured immediately by LC-MS/MS analysis; assay type: ADME, cell-free
[29] = Stability in human plasma assessed as parent compound remaining at 1 mM measured after 2 hrs by LC-MS/MS analysis; assay type: ADME, cell-free; conditions: read-out: Stability
[30] = molecular target: DNA topoisomerase 2-alpha (Homo sapiens) (UniProt P11388); test: Poison activity at topoisomerase-2 alpha in human T47D cells assessed as stabilization of enzyme-DNA cleavage complex by measuring reduction in topo-2alpha level at 50 uM measured after 2 hrs by Western blot analysis; assay type: cell-based

Sequence of DNA topoisomerase 2-alpha (Homo sapiens) (P11388 whole entry): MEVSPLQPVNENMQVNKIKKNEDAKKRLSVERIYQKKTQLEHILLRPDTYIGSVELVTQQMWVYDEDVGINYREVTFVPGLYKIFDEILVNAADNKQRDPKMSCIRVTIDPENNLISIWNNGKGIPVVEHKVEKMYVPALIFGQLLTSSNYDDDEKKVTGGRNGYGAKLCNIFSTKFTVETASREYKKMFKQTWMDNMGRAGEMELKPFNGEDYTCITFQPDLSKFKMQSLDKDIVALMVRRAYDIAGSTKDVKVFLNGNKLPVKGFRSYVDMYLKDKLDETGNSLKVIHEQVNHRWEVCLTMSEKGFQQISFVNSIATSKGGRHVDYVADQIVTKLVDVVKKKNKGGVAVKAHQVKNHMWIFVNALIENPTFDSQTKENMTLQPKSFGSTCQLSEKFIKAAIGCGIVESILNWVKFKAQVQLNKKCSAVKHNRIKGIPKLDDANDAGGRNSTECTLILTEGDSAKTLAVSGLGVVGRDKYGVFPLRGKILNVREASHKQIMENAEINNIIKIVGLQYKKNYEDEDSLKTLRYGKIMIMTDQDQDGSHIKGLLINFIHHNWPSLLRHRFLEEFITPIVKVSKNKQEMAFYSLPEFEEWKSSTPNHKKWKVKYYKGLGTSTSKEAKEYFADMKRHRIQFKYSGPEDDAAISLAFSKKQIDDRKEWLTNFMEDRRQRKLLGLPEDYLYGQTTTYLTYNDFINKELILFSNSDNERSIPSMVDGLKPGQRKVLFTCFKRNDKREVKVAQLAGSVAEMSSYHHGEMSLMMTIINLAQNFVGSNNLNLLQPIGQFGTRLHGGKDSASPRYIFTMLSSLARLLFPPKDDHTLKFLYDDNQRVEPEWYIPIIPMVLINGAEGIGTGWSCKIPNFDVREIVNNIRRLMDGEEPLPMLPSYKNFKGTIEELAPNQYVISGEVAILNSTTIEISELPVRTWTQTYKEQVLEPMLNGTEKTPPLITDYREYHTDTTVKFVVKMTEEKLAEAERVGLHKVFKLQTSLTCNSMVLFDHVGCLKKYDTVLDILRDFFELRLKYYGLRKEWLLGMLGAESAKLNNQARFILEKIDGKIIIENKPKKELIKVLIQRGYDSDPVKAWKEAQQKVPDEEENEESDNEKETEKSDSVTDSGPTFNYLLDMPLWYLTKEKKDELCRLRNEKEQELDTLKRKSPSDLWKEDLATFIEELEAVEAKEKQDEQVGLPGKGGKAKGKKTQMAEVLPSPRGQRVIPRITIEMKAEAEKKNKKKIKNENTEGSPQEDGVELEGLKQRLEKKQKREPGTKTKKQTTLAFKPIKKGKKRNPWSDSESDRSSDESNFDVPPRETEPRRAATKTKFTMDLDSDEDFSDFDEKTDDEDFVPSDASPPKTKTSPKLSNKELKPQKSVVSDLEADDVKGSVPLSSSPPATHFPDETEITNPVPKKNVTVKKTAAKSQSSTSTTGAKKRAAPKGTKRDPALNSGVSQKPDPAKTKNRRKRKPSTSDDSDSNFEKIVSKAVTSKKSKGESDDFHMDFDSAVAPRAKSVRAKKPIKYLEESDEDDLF

## Oc1ccc(-c2cc(-c3ccccc3Cl)nc3c2Cc2c(O)cccc2-3)cc1
[1]
  remaining at 0 h: 100%
[2]
  inhibition: 78.9%
[3]
  Activity: Non-Toxic
[4]
  Stability: 117.1%
[5]
  mortality at 168 h: 0%
[6]
  half-life: 26 h
T47D [7]
  Activity: Active
[8]
  fraction unbound at 1 h: 1
[9]
  Stability: 130.4%
[10]
  Activity: Non-Toxic
MDA-MB-231
  TGI: Active
[11]
  remaining at 0.5 h: 99.3%
[12]
  remaining at 0.25 h: 98.7%
MDA-MB-436
  IC50: 2640 nM
[13]
  inhibition: 0%
[14]
  fraction unbound at 1 h: 0.959
T47D [15]
  Activity: Active
[16]
  remaining at 0.5 h: 99.8%
[17]
  half-life: 2.61 h
[18]
  remaining at 0 h: 100%
T47D [19]
  IC50: 2.67 nM
[20]
  fraction unbound at 1 h: 0.999
[21]
  remaining at 0 h: 100%
[22]
  half-life: 6.53 h
HCC70
  IC50: 2080 nM
[23]
  Stability: 116.3%
[24]
  Activity: Non-Toxic
T47D [25]
  Activity: Active
T47D [26]
  Activity: Active
[27]
  remaining at 1 h: 104%
[28]
  fraction unbound at 0 h: 1
[29]
  remaining at 2 h: 100%
[30]
  Activity: Active
